7 molecules from ChEMBL document CHEMBL2074507, “Transport of small organic cations in the rat liver. The role of the organic cation transporter OCT1” (Naunyn Schmiedebergs Arch Pharmacol, 1996) can be followed below.

Data set [1] concerns the target T1, Solute carrier family 22 member 1 (Rattus norvegicus, UniProt Q63089).
T1 sequence (Q63089 whole entry): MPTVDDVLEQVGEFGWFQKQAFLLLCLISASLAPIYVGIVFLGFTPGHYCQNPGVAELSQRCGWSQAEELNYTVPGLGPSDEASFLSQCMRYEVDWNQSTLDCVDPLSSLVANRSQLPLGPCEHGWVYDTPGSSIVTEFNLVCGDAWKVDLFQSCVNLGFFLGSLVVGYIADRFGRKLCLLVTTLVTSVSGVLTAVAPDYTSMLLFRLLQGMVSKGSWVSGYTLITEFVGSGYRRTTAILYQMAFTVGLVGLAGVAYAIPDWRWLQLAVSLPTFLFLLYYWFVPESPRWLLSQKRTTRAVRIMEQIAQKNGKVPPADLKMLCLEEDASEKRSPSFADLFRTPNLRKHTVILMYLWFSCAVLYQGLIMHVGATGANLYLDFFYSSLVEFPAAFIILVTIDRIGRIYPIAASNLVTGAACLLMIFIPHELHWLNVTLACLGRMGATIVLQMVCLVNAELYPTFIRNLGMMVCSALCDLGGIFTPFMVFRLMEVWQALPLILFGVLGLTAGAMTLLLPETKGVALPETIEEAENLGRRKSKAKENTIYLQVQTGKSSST
The data set can be described thus: TP_TRANSPORTER: inhibition of MPP+ uptake in OCT1-expressing HEK293 cells. Type of data set: functional, cell-based.

Substrate in data set [2]: C[n+]1ccc(-c2ccccc2)cc1
The data set can be described thus: TP_TRANSPORTER: uptake in OCT1-expressing HEK293 cells. The format is functional, cell-based.

Turning to `Clc1cccc(Cl)c1N=C1NCCN1` [CLONIDINE], in data set [1], the Ki is 1400 nM.
`COc1cc(C(O)CNC(C)C)ccc1O` (configuration not stated) [METIPRENALINE] came in with a Ki in data set [1] of 25000 nM.
Still for that read-out and setting: the value for `CC(C)N1/C(=C\c2cc[n+](C(C)C)c3ccccc23)C=Cc2ccccc21` [DISPROCYNIUM24] was 110 nM; that for `C[C@]12C[C@H](O)[C@H]3[C@@H](CCC4=CC(=O)CC[C@@]43C)[C@@H]1CC[C@@H]2C(=O)CO` [CORTICOSTERONE] was 72000 nM; that for `CCN1/C(=C/c2ccc3ccccc3[n+]2CC)C=Cc2ccccc21` was 500 nM.
Take `CC[n+]1c(CC2C=C(C)N=C(c3ccccc3)N2C)ccc2ccccc21` (configuration not stated) [Cyanine-863]: the Ki in data set [1] came to 670 nM.

B1: Solute carrier family 22 member 1 (Rattus norvegicus) (protein)
chain: T1 sequence (Q63089 whole entry)
With B1, the Michaelis constant (Km) in data set [2] was determined as 13 µM.

As usually defined, the Ki is a measure of affinity in units of concentration, obtained from inhibition or displacement. A low value points to a stronger hold on the target. As a reminder, the Km is the concentration of substrate that gives half-maximal velocity.
